Source: article PMC5667636 (Antiviral Research, 2017)

What was measured:
[1] = tested on: neuraminidase (NA) of B/Yamagata-lineage viruses; assay type: biochemical, influenza B/Yamagata-lineage virus
[2] = tested on: neuraminidase (NA) of A(H1N1)pdm09 viruses; assay type: biochemical, influenza A(H1N1)pdm09 virus
[3] = tested on: neuraminidase (NA) of A(H1N1)pdm09 viruses; details: cited from earlier work

SMILES | inhibition phenotype in NAI assay (NI/RI/HRI) [1] | IC50 fold-change of viruses exhibiting RI/HRI [2] | effect on inhibition (IC50 fold) [3]
CCC(CC)[C@H](NC(C)=O)[C@@H]1[C@H](O)[C@@H](C(=O)O)C[C@H]1N=C(N)N [Peramivir, peramivir] | borderline RI | 10- to 6270 fold | –
CCOC(=O)C1=C[C@@H](OC(CC)CC)[C@H](NC(C)=O)[C@@H](N)C1 [Oseltamivir, oseltamivir] | – | – | 5- to 8 fold
CC(=O)N[C@H]1[C@H]([C@H](O)[C@H](O)CO)OC(C(=O)O)=C[C@@H]1N=C(N)N [Zanamivir, zanamivir] | borderline RI | – | –
